According to patent US20250099448A1, “HETEROCYCLIC COMPOUNDS” (Hoffmann-La Roche Inc., priority 2022, published 2025):
pIC50: −log10 of the molar value.

These compounds were tested against T1, MAGL protein (Homo sapiens, UniProt Q99685) (assay: 2-AG assay: MAGL inhibitory activity by hydrolysis of 2-arachidonoylglycerol to arachidonic acid, followed by mass spectrometry). Details: 8 μM 2-arachidonoylglycerol, 15 min preincubation, 30 min reaction at RT, RapidFire MS readout.
T1 sequence (Q99685 1-303): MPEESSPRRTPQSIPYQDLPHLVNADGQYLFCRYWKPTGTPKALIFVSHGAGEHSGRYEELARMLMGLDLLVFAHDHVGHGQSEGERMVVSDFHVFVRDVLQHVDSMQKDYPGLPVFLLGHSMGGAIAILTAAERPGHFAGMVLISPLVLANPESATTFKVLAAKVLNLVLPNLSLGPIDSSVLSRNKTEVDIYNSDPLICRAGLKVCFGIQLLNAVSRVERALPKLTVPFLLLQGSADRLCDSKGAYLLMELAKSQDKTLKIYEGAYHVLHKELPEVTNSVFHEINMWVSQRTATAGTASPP
Assay type: biochemical
Procedure: Compounds of formula (I) were profiled for MAGL inhibitory activity by determining the enzymatic activity by following the hydrolysis of the natural substrate 2-arachidonoylglycerol (2-AG) resulting in arachidonic acid, which can be followed by mass spectrometry. This assay is hereinafter abbreviated “2-AG assay”. The 2-AG assay was carried out in 384 well polypropylene assay plates. Compound dilutions were made in 100% DMSO in a polypropylene plate in 3-fold dilution steps to give a final concentration range in the assay from 12.5 μM to […]. Compound dilutions were added to MAGL protein in assay buffer (50 mM TRIS, 1 mM EDTA, 0.01% (v/v) Tween-20, 2.5% (v/v) DMSO). After shaking, the plate was incubated for 15 min at RT. To start the reaction, 2-arachidonoylglycerol in assay buffer was added. The final concentrations in the assay was […] for MAGL protein and 8 μM 2-arachidonoylglyerol. After shaking and 30 min incubation at RT, the reaction was quenched by the addition of two assay volumes of acetonitrile containing 4 μM of d8-arachidonic acid. The amount of arachidonic acid formed was traced by an online SPE system (Agilent Rapidfire) coupled to a triple quadrupole mass spectrometer. A C18 SPE cartridge (Agilent G9205A) was used in an acetonitrile/water liquid setup. The mass spectrometer was operated in negative electrospray mode following the mass transitions 303.1→259.1 for arachidonic acid and 311.1→267.0 for d8-arachidonic acid. The activity of the compounds was calculated based on the ratio of intensities [arachidonic acid/d8-arachidonic acid].

SMILES | pIC50
O=C(N1CC2(CC(c3nc(C4CC4)n[nH]3)C2)C1)N1CC2(CC[C@H](Cc3ccc(S(=O)(=O)C(F)(F)F)cc3)C2)C1 [compound 667] | 10.05
O=C(N1CC2(CC(Cn3cnc(C4(C(F)(F)F)CC4)c3)C2)C1)N1CC2(CC(c3nc(C4CC4)n[nH]3)C2)C1 [compound 860] | 8.54
O=C(N1CC2(CC(Cc3ncc(F)cc3Cl)C2)C1)N1CC2(CC(c3ncn[nH]3)C2)C1 [compound 789] | 6.39
N=[S@](=O)(c1ccc(CC2CC3(C2)CN(C(=O)N2CC4(CC(c5nnc(C6CC6)[nH]5)C4)C2)C3)cc1)C(F)(F)F (single isomer, unassigned) [compound 129] | 10.00
CC(C)S(=O)(=O)c1ccc(C2CN(C(=O)N3CC4(CC(c5nnc(C6CC6)[nH]5)C4)C3)C2)c(Cl)c1 [compound 247] | 8.43
O=C(N1CC2(CCC(Cc3ccc(F)cn3)CC2)C1)N1CC2(CC(c3nnc(C4(O)CC4)[nH]3)C2)C1 [compound 145] | 7.90
N#Cc1ccc(CC2CC3(C2)CN(C(=O)N2CC4(CC(c5nc(C6CC(F)(F)C6)n[nH]5)C4)C2)C3)cc1C(F)(F)F [compound 677] | 7.89
O=C(N1CC2(CC(NC(=O)C3(C(F)(F)F)CC3)C2)C1)N1CC2(CC(c3nnc(C4CC4)[nH]3)C2)C1 [compound 222] | 7.39
O=C(N1CC2(CCC(Cc3ccc(F)cn3)CC2)C1)N1CC2(CC(c3nnc(C4CC4)[nH]3)C2)C1 [compound 144] | 9.20
O=C(N1CC2(CC(Cc3cc(C(F)F)c[nH]c3=O)C2)C1)N1CC2(CC(c3nc(C4CC4)n[nH]3)C2)C1 [compound 956] | 8.83
N#Cc1ccc(CC2CC3(C2)CN(C(=O)N2CC4(CC(c5nc(C6(O)CC6)n[nH]5)C4)C2)C3)cc1C(F)(F)F [compound 629] | 8.84
O=C(N1CC2(CCC(NS(=O)(=O)c3cccc(OC(F)(F)F)c3)CC2)C1)N1CC2(CC(c3nnc(C4CC4)[nH]3)C2)C1 [compound 348] | 9.20
CS(=O)(=O)c1cc(CC2CC3(C2)CN(C(=O)N2CC4(CC(c5nc(C6(O)CC6)n[nH]5)C4)C2)C3)cc(C(F)(F)F)c1 [compound 670] | 9.00
N#Cc1cc(CC2CC3(C2)CN(C(=O)N2CC4(CC(c5nc(C6CC6)n[nH]5)C4)C2)C3)cc(C(F)(F)F)c1 [compound 867] | 10.00
Cc1nc(C)c(CN2CC3(C2)CN(C(=O)N2CC4(CC(c5nnc(C6CC6)[nH]5)C4)C2)C3)o1 [compound 898] | 6.66
O=C(N1CC2(CC(NS(=O)(=O)c3ccccc3C(F)(F)F)C2)C1)N1CC2(CC(c3nnc(C4CC4)[nH]3)C2)C1 [compound 224] | 9.15
O=C(N1CC2(CC(c3nnc(C4CC4)[nH]3)C2)C1)N1CC2(CN(Cc3ccc(C(F)(F)F)cn3)C2)C1 [compound 163] | 8.39
O=C(N1CC2(CCC(Cc3ncc(F)cc3F)C2)C1)N1CC2(CC(c3nnc(C4CC4)[nH]3)C2)C1 (single isomer, unassigned) [compound 149] | 9.41
CC(C)c1cc(C(C)C)n(-c2ccc(C3CN(C(=O)N4CC5(CC(c6nnc(C7CC7)[nH]6)C5)C4)C3)cc2)n1 [compound 276] | 9.77
O=C(N1CC(C2CN(Cc3ccc(C(F)(F)F)cc3)C2)C1)N1CC2(CC(c3nnc(C4CC4)[nH]3)C2)C1 [compound 360] | 7.49
O=C(N1CC(OCc2ccc(C(F)(F)F)cc2F)C1)N1CC2(CC(c3nnc(C4(O)CC4)[nH]3)C2)C1 [compound 324] | 7.84
O=C(N1CC(OCc2ccc(C(F)(F)F)nc2)C1)N1CC2(CC(c3nnc(C4CC4)[nH]3)C2)C1 [compound 332] | 6.80
O=C(N1CC2(CC(c3nc(C4CC4)n[nH]3)C2)C1)N1CC2(CN(Cc3ccn(CC(F)(F)F)c(=O)c3)C2)C1 [compound 426] | 6.56

SMILES | pIC50
O=C(N1CC(OCc2ccc(S(=O)(=O)C(F)(F)F)cc2F)C1)N1CC2(CC(c3nc(C4(F)CC4)n[nH]3)C2)C1 [compound 470] | 8.29
O=C(N1CC2(CCC(Cc3ccc(C(F)(F)F)cn3)CC2)C1)N1CC2(CC(c3nnc(C4CC4)[nH]3)C2)C1 [compound 48] | 9.89
O=C(N1CC2(CC(Cc3cn(CC(F)(F)F)nc3C(F)(F)F)C2)C1)N1CC2(CC(c3nc(C4CC4)n[nH]3)C2)C1 [compound 571] | 9.26
CP(C)(=O)c1cc(F)cc(CC2CC3(C2)CN(C(=O)N2CC4(CC(c5nc(C6CC6)n[nH]5)C4)C2)C3)c1 [compound 680] | 8.77
CS(=O)(=O)c1ccc(COC2CN(C(=O)N3CC4(CC(c5nnc(C6CC6)[nH]5)C4)C3)C2)c(F)c1 [compound 330] | 7.22
Cn1ncc(C(F)(F)F)c1CC1CC2(C1)CN(C(=O)N1CC3(CC(c4nc(C5(O)CC5)n[nH]4)C3)C1)C2 [compound 777] | 8.90
O=C(N1CC2(CC(c3cnc(C(F)(F)F)cn3)C2)C1)N1CC2(CC(c3nnc(C4CC4)[nH]3)C2)C1 [compound 67] | 8.23
O=C(N1CC(C23CC(Oc4cnc(C(F)(F)F)cn4)(C2)C3)C1)N1CC2(CC(c3nc(C4(O)CC4)n[nH]3)C2)C1 [compound 552] | 7.58
O=C(N1CC2(CC(Cn3nccc3C3CC3)C2)C1)N1CC2(CC(c3nc(C4CC4)n[nH]3)C2)C1 [compound 973] | 9.57
N#Cc1ncc(CC2CC3(C2)CN(C(=O)N2CC4(CC(c5nc(C6(F)CC6)n[nH]5)C4)C2)C3)cc1C(F)(F)F [compound 512] | 9.17
O=C(N1CC2(CC(Cc3ncc(C(F)(F)F)cn3)C2)C1)N1CC2(CC(c3nnc(C4CC4)[nH]3)C2)C1 [compound 28] | 9.03
O=C(N1CC2(CC(Cc3ccc(C(F)(F)F)cc3F)C2)C1)N1CC2(CC(c3nnc(C4(O)CC4)[nH]3)C2)C1 [compound 38] | 11.00
N#Cc1cc(CC2CC3(C2)CN(C(=O)N2CC4(CC(c5nnc(C6(O)CC6)[nH]5)C4)C2)C3)ccc1C(F)(F)F [compound 27] | 9.96
O=C(N1CC2(CCC(NS(=O)(=O)C3CCC(F)(F)CC3)CC2)C1)N1CC2(CC(c3nnc(C4CC4)[nH]3)C2)C1 [compound 358] | 7.58
O=C(N1CC2(CC(CNC3CS(=O)(=O)C3)C2)C1)N1CC2(CC(c3nnc(C4CC4)[nH]3)C2)C1 [compound 364] | 6.42
O=C(N1CC2(CC(Cc3ncc(F)cc3Cl)C2)C1)N1CC2(CC(c3nnc(C4CC4)[nH]3)C2)C1 [compound 117] | 10.00
O=C(N1CC2(CC(Cc3cc(C(F)F)[nH]n3)C2)C1)N1CC2(CC(c3nc(C4(O)CC4)n[nH]3)C2)C1 [compound 615] | 8.78
O=C(N1CC2(CC(Cc3nc(C(F)(F)F)cs3)C2)C1)N1CC2(CC(c3nc(C4CC4)n[nH]3)C2)C1 [compound 704] | 9.52
N#Cc1cc(C(F)(F)F)ncc1C[C@H]1CCC2(C1)CN(C(=O)N1CC3(CC(c4nnc(C5CC5)[nH]4)C3)C1)C2 [compound 611] | 9.17
Cc1cc(C)n(C23CC(C4CN(C(=O)N5CC6(CC(c7nc(C8CC8)n[nH]7)C6)C5)C4)(C2)C3)n1 [compound 725] | 7.33
COC(=O)c1cc(CC2CC3(C2)CN(C(=O)N2CC4(CC(c5nc(C6CC6)n[nH]5)C4)C2)C3)ccc1OC(F)(F)F [compound 912] | 10.15
O=C(N1CC2(CC(Cc3ncc(C(F)(F)F)cc3F)C2)C1)N1CC2(CC(c3ncn[nH]3)C2)C1 [compound 620] | 6.73
O=C(N1CC2(CC(Cc3ccc(OC(F)(F)F)cn3)C2)C1)N1CC2(CC(c3nnc(C4(O)CC4)[nH]3)C2)C1 [compound 9] | 9.24
